Assays:
Assay in all cases: biochemical
Set-up in all cases: KINOMEscan competition binding panel (Eurofins DiscoverX), single concentration, percent inhibition
Settings in all cases: read-out: 15 at 1 µM % inhibition
[1] = molecular target: ALK(L1196M) (Homo sapiens, UniProt Q9UM73, L1196M)
Outline: (§1)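 Binding was profiled in the KINOMEscan panel of over 400 human kinases, with each compound tested at a single concentration of 1 µM to map selectivity.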

[2] = molecular target: BMX (Homo sapiens, UniProt P51813)
Outline: as §1

[3] = molecular target: CDKL3 (Homo sapiens, UniProt Q8IVW4)
Outline: as §1

[4] = molecular target: DAPK1 (Homo sapiens, UniProt P53355)
Outline: as §1

[5] = molecular target: DMPK (Homo sapiens, UniProt Q09013)
Outline: as §1

[6] = molecular target: FLT3(D835Y) (Homo sapiens, UniProt P36888, D835Y)
Outline: as §1

[7] = molecular target: T1, JAK1(JH2domain-pseudokinase) (Homo sapiens, UniProt P23458)
T1 construct: JH2domain-pseudokinase
T1 sequence (P23458 whole entry): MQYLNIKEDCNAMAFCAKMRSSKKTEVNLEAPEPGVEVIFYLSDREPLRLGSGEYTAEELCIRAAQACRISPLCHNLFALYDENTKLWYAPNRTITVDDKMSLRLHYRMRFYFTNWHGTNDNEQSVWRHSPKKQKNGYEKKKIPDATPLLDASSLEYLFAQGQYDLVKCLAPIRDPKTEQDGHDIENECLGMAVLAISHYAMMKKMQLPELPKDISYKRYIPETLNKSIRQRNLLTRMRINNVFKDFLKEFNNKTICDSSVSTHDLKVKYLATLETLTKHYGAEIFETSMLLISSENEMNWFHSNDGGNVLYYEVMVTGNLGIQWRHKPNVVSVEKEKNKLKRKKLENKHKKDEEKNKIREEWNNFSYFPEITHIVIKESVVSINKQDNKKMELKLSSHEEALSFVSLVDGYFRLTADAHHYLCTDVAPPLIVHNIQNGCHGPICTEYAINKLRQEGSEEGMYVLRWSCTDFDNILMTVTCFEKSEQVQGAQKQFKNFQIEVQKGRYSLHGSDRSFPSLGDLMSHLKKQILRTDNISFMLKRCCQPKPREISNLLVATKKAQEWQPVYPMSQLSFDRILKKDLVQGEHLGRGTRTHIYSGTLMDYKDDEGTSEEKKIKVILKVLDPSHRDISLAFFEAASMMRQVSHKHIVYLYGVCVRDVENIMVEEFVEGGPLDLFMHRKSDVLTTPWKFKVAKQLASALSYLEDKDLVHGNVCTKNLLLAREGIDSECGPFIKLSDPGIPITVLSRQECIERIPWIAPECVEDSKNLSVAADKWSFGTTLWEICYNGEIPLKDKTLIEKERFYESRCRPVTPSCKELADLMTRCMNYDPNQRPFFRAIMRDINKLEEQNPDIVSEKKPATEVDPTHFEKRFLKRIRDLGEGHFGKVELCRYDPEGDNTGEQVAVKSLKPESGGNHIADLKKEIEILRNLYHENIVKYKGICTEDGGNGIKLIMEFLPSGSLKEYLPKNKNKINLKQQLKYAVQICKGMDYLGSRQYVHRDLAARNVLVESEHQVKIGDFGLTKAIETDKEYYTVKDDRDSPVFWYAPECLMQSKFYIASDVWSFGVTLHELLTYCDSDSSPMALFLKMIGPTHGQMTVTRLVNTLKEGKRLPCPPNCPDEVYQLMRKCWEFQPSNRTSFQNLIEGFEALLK
Outline: as §1

[8] = molecular target: T2, JNK2 (Homo sapiens, UniProt P45984)
T2 construct: gene MAPK9
Outline: as §1

[9] = molecular target: LIMK1 (Homo sapiens, UniProt P53667)
Outline: as §1

[10] = molecular target: MAP3K4 (Homo sapiens, UniProt Q9Y6R4)
Outline: as §1

[11] = molecular target: MARK4 (Homo sapiens, UniProt Q96L34)
Chain of MARK4 (Q96L34 whole entry): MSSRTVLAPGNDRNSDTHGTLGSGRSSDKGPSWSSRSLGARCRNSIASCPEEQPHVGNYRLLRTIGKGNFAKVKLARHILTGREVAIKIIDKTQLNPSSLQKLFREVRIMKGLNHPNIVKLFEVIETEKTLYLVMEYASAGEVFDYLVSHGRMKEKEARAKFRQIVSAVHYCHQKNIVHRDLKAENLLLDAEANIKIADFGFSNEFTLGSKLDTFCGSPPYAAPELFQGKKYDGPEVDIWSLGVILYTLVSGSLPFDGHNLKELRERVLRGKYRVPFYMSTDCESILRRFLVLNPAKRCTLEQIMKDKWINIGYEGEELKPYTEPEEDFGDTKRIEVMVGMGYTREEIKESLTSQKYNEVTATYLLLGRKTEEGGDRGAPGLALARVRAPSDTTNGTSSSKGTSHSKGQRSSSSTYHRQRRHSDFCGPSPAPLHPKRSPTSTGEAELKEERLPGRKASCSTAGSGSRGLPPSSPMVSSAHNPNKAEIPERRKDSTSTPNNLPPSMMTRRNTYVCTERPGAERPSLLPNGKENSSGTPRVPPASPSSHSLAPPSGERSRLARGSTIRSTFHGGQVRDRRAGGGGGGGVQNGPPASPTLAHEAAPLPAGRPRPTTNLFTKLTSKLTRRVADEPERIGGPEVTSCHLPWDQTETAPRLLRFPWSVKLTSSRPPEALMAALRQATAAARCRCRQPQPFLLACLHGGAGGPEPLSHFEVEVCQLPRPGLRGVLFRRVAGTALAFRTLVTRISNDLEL
Outline: as §1

[12] = molecular target: T3, MEK4 (Homo sapiens, UniProt P45985)
T3 construct: gene MAP2K4
T3 sequence (P45985 whole entry): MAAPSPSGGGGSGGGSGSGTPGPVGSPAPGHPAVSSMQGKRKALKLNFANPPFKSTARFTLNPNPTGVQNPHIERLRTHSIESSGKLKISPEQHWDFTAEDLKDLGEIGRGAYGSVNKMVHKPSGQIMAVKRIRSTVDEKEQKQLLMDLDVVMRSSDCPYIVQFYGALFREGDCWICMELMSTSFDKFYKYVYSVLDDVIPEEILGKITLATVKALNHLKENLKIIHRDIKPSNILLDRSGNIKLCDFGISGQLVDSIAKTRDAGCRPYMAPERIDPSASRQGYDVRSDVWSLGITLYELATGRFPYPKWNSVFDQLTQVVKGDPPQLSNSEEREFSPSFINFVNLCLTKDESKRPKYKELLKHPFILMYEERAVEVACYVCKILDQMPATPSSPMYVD
Outline: as §1

[13] = molecular target: T4, MEK6 (Homo sapiens, UniProt P52564)
T4 construct: gene MAP2K6
Outline: as §1

[14] = molecular target: T5, NDR1 (Homo sapiens, UniProt Q15208)
T5 construct: gene STK38
Outline: as §1

[15] = molecular target: PIKFYVE (Homo sapiens, UniProt Q9Y2I7)
Outline: as §1

[16] = molecular target: PRKCH (Homo sapiens, UniProt P24723)
Outline: as §1

[17] = molecular target: RAF1 (Homo sapiens, UniProt P04049)
Chain of RAF1 (P04049 whole entry): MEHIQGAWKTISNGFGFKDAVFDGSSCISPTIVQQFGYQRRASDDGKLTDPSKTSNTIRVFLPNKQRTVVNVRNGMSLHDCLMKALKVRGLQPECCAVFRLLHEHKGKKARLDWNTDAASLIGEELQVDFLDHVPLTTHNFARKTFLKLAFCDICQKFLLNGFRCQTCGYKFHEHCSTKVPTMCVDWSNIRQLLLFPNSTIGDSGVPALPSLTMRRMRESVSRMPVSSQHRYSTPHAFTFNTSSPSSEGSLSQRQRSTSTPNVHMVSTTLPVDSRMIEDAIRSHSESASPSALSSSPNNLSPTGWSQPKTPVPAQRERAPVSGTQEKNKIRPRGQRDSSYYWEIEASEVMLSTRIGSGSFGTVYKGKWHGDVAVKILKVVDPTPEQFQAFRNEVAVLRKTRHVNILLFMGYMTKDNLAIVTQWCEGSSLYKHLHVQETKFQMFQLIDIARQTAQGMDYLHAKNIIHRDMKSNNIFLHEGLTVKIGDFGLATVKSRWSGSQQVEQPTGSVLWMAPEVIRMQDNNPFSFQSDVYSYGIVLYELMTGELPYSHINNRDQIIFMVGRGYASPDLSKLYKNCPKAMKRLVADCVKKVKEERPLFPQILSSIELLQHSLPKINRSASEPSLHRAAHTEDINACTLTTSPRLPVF
Outline: as §1

[18] = molecular target: T6, RSK3(Kin.Dom.2-C-terminal) (Homo sapiens, UniProt Q15349)
T6 construct: gene RPS6KA2; Kin.Dom.2-C-terminal
T6 sequence (Q15349 whole entry): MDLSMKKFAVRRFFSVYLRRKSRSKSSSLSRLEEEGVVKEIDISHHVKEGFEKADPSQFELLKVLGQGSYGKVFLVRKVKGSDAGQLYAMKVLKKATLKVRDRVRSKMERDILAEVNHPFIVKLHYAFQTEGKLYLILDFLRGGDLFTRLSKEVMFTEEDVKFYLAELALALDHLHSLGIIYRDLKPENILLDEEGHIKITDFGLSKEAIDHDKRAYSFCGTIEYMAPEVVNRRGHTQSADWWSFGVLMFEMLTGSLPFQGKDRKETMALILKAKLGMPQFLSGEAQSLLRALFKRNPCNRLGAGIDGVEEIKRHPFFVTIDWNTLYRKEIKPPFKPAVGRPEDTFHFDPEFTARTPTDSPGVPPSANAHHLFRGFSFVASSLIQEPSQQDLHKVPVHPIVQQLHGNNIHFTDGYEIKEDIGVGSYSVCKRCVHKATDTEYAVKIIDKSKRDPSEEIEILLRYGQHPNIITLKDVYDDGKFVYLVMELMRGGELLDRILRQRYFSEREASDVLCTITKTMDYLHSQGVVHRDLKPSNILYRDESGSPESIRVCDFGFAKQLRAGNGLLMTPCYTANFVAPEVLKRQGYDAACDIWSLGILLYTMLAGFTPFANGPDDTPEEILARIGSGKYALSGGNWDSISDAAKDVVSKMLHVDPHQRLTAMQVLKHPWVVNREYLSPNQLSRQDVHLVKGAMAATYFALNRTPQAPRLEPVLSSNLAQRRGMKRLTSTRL
Outline: as §1

[19] = molecular target: SRMS (Homo sapiens, UniProt Q9H3Y6)
Chain of SRMS (Q9H3Y6 whole entry): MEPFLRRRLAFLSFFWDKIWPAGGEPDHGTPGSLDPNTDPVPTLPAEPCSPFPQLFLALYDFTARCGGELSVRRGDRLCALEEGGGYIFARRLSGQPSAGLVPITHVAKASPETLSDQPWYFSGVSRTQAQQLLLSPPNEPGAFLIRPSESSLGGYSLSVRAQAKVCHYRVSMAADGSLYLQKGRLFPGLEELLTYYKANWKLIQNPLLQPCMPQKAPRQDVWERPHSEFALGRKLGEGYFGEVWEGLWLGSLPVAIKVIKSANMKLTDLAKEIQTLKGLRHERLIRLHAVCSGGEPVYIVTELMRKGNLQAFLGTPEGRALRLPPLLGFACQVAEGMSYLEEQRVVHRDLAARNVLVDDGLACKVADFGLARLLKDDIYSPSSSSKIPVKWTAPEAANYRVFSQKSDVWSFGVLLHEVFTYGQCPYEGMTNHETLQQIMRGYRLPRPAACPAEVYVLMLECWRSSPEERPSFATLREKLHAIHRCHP
Outline: as §1

[20] = molecular target: TRPM6 (Homo sapiens, UniProt Q9BX84)
Outline: as §1

[21] = molecular target: TTK (Homo sapiens, UniProt P33981)
Chain of TTK (P33981 whole entry): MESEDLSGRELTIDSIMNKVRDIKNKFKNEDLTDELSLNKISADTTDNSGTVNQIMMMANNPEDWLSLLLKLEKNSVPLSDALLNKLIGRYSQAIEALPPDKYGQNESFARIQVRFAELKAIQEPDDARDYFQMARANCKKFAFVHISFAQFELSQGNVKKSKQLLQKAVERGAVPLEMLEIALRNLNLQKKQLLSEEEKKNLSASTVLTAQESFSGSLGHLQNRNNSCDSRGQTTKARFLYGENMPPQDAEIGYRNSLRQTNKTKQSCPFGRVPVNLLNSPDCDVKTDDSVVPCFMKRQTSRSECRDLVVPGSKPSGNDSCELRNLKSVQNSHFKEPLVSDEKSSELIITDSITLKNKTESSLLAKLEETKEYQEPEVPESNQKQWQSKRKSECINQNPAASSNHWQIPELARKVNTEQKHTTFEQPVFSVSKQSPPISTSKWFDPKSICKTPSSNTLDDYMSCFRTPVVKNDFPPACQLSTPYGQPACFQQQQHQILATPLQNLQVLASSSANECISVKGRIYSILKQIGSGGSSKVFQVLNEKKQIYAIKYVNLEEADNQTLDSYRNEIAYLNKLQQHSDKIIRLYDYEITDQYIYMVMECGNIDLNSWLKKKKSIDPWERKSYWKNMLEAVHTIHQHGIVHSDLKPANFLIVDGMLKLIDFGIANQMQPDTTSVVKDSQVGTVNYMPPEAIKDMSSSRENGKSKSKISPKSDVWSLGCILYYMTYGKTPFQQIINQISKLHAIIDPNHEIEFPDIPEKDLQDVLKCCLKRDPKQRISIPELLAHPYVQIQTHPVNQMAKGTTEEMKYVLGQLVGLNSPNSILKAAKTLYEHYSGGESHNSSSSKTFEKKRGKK
Outline: as §1

[22] = molecular target: TXK (Homo sapiens, UniProt P42681)
Outline: as §1

[23] = molecular target: T7, TYK2(JH2domain-pseudokinase) (Homo sapiens, UniProt P29597)
T7 construct: JH2domain-pseudokinase
Outline: as §1

[24] = molecular target: T8, YANK3 (Homo sapiens, UniProt Q86UX6)
T8 construct: gene STK32C
Outline: as §1

inhibition at 1 µM [1]: 12%
inhibition at 1 µM [2]: 10%
inhibition at 1 µM [3]: 23%
inhibition at 1 µM [4]: 7%
inhibition at 1 µM [5]: 3%
inhibition at 1 µM [6]: 4%
inhibition at 1 µM [7]: 26%
inhibition at 1 µM [8]: 4%
inhibition at 1 µM [9]: 0%
inhibition at 1 µM [10]: 0%
inhibition at 1 µM [11]: 0%
inhibition at 1 µM [12]: 25%
inhibition at 1 µM [13]: 0%
inhibition at 1 µM [14]: 13%
inhibition at 1 µM [15]: 13%
inhibition at 1 µM [16]: 0%
inhibition at 1 µM [17]: 0%
inhibition at 1 µM [18]: 0%
inhibition at 1 µM [19]: 17%
inhibition at 1 µM [20]: 6%
inhibition at 1 µM [21]: 2%
inhibition at 1 µM [22]: 5%
inhibition at 1 µM [23]: 0%
inhibition at 1 µM [24]: 0%
Structure (SMILES): CNS(=O)(=O)c1ccc(N(C)C)c(Nc2nc(C)nc3cc(OC)c(OC)cc23)c1 [compound 15, 3-((6,7-dimethoxy-2-methylquinazolin-4-yl)amino)-4-(dimethylamino)-N-methylbenzenesulfonamide]

— PMC7180948, “New Insights into 4-Anilinoquinazolines as Inhibitors of Cardiac Troponin I–Interacting Kinase (TNNi3K)” (Molecules, 2020)
